Laboratory results as given in ChEMBL document CHEMBL1201862, “PubChem BioAssay data set” (2004).
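Following 48 hours of exposure in 96-well plates, responses at five concentrations were used to interpolate endpoints linearly. Here, GI50 denotes the concentration required for 50% inhibition of growth.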 Activity calls are given as the source filed them. Cut-off read from the data, not from the text of the source: active = GI50 up to about 1.1 µM and inactive = higher.

How the values were obtained:
Assay in all cases: NCI-60 cell line screen, 48 h
[1] = test system: 786-0
[2] = test system: A498
[3] = test system: A549
[4] = test system: ACHN
[5] = test system: CAKI-1
[6] = test system: CCRF-CEM
[7] = test system: COLO 205
[8] = test system: DLD-1
[9] = test system: DMS-114
[10] = test system: DMS-273
[11] = test system: EKVX
[12] = test system: HL-60
[13] = test system: HOP-18
[14] = test system: HOP-62
[15] = test system: HOP-92
[16] = test system: HT-29
[17] = test system: IGROV-1
[18] = test system: K562
[19] = test system: KM-20L2
[20] = test system: KM12
[21] = test system: LOX IMVI
[22] = test system: LXFL 529
[23] = test system: M19-MEL
[24] = test system: MOLT-4
[25] = test system: Malme-3M
[26] = test system: NCI-H226
[27] = test system: NCI-H23
[28] = test system: NCI-H460
[29] = test system: OVCAR-4
[30] = test system: OVCAR-5
[31] = test system: OVCAR-8
[32] = test system: RXF 393
[33] = test system: RXF 631
[34] = test system: SF-268
[35] = test system: SF-295
[36] = test system: SF-539
[37] = test system: SK-MEL-28
[38] = test system: SK-MEL-2
[39] = test system: SK-MEL-5
[40] = test system: SK-OV-3
[41] = test system: SN12C
[42] = test system: SNB-19
[43] = test system: SNB-78
[44] = test system: SR
[45] = test system: SW-620
[46] = test system: TK-10
[47] = test system: U-251
[48] = test system: UACC-257
[49] = test system: UACC-62
[50] = test system: UO-31
[51] = test system: HCC 2998
[52] = test system: HCT-116
[53] = test system: HCT-15
[54] = test system: M14
[55] = test system: NCI-H522
[56] = test system: OVCAR-3
[57] = test system: RPMI-8226
[58] = test system: SNB-75
[59] = test system: XF498

For `CCN(CC)c1c(C(=O)/C=C/c2ccc(OC)cc2)c(-c2ccccc2)nn(C)c1=O`, the GI50 [1] was 14.1 µM (inactive), the GI50 [2] was 20.9 µM (inactive) and the GI50 [3] was 12 µM (inactive). For the same compound, the GI50 [4] was 10.9 µM (inactive), the GI50 [5] was 29.8 µM (inactive) and the GI50 [6] was 6.78 µM (inactive). The GI50 [7] was 3.87 µM (inactive), the GI50 [8] was 12.1 µM (inactive) and the GI50 [9] was 13.4 µM (inactive). For the same compound, the GI50 [10] was 2.37 µM (inactive), the GI50 [11] was 8 µM (inactive) and the GI50 [12] was 6.7 µM (inactive). The GI50 [13] was 22.2 µM (inactive), the GI50 [14] was 45.9 µM (inactive) and the GI50 [15] was 6.07 µM (inactive). The GI50 [16] was 9.51 µM (inactive), the GI50 [17] was 19.2 µM (inactive) and the GI50 [18] was 9.06 µM (inactive). For the same compound, the GI50 [19] was 15.4 µM (inactive), the GI50 [20] was 12.7 µM (inactive) and the GI50 [21] was 14.9 µM (inactive). For the same compound, the GI50 [22] was 10.7 µM (inactive), the GI50 [23] was 6.34 µM (inactive) and the GI50 [24] was 2.67 µM (inactive). For the same compound, the GI50 [25] was 15.1 µM (inactive), the GI50 [26] was 16.1 µM (inactive) and the GI50 [27] was 10.4 µM (inactive). For the same compound, the GI50 [28] was 7.83 µM (inactive), the GI50 [29] was 8.75 µM (inactive) and the GI50 [30] was 5.46 µM (inactive). The GI50 [31] was 22.2 µM (inactive), the GI50 [32] was 10.6 µM (inactive) and the GI50 [33] was 20.6 µM (inactive). The GI50 [34] was 6.52 µM (inactive), the GI50 [35] was 21.5 µM (inactive) and the GI50 [36] was 17.1 µM (inactive). For the same compound, the GI50 [37] was 16.7 µM (inactive), the GI50 [38] was 18.6 µM (inactive) and the GI50 [39] was 8.41 µM (inactive). The GI50 [40] was 36 µM (inactive), the GI50 [41] was 21 µM (inactive) and the GI50 [42] was 17.8 µM (inactive). The GI50 [43] was 25 µM (inactive), the GI50 [44] was 5.55 µM (inactive) and the GI50 [45] was 26.5 µM (inactive). For the same compound, the GI50 [46] was 32.8 µM (inactive), the GI50 [47] was 13.5 µM (inactive) and the GI50 [48] was 19.6 µM (inactive). For the same compound, the GI50 [49] was 10.5 µM (inactive) and the GI50 [50] was 36.6 µM (inactive).
In the case of `COC(=O)C1=C(c2cc(OC)c(OC)c(OC)c2)OC(c2cc(OC)c(OC)c(OC)c2)C1COC(C)=O` (configuration not stated), the GI50 [1] is reported as 26.1 µM (inactive), the GI50 [2] is reported as 51.5 µM (inactive) and the GI50 [3] is reported as 51.4 µM (inactive). For the same compound, the GI50 [4] was 30.1 µM (inactive), the GI50 [5] was > 100 µM (inactive) and the GI50 [6] was 41.8 µM (inactive). The GI50 [7] was 18.2 µM (inactive), the GI50 [8] was 26.2 µM (inactive) and the GI50 [9] was 34.7 µM (inactive). The GI50 [10] was 25.6 µM (inactive), the GI50 [11] was > 100 µM (inactive) and the GI50 [51] was 50.9 µM (inactive). For the same compound, the GI50 [52] was 30.4 µM (inactive), the GI50 [53] was 26.9 µM and the GI50 [12] was 10.3 µM (inactive). For the same compound, the GI50 [14] was 36.6 µM (inactive), the GI50 [15] was 10.3 µM (inactive) and the GI50 [16] was 35.5 µM (inactive). For the same compound, the GI50 [17] was 54.1 µM (inactive), the GI50 [18] was 24 µM (inactive) and the GI50 [19] was 71.6 µM (inactive). For the same compound, the GI50 [20] was 51.8 µM (inactive), the GI50 [21] was 20.8 µM (inactive) and the GI50 [22] was 34.4 µM (inactive). The GI50 [54] was 41 µM (inactive), the GI50 [23] was 32.1 µM (inactive) and the GI50 [24] was 20.8 µM (inactive). For the same compound, the GI50 [25] was > 100 µM (inactive), the GI50 [26] was 46.1 µM (inactive) and the GI50 [27] was 33.7 µM (inactive). The GI50 [28] was 36.6 µM (inactive), the GI50 [55] was 16.7 µM (inactive) and the GI50 [56] was 33.7 µM (inactive). For the same compound, the GI50 [29] was 29.6 µM (inactive), the GI50 [30] was 18.1 µM (inactive) and the GI50 [31] was 59.7 µM (inactive). For the same compound, the GI50 [57] was 29.1 µM (inactive), the GI50 [32] was 40.6 µM (inactive) and the GI50 [33] was 17.4 µM (inactive). For the same compound, the GI50 [34] was > 100 µM (inactive), the GI50 [35] was 45.2 µM (inactive) and the GI50 [36] was > 100 µM (inactive). For the same compound, the GI50 [37] was > 100 µM (inactive), the GI50 [39] was 29.4 µM (inactive) and the GI50 [40] was 44.8 µM (inactive). For the same compound, the GI50 [41] was 85.1 µM (inactive), the GI50 [42] was > 100 µM (inactive) and the GI50 [58] was 74.6 µM (inactive). For the same compound, the GI50 [43] was 45.7 µM (inactive), the GI50 [44] was 16.7 µM (inactive) and the GI50 [45] was 87.5 µM (inactive). For the same compound, the GI50 [46] was 42.4 µM (inactive), the GI50 [47] was 51.6 µM (inactive) and the GI50 [48] was 95.7 µM (inactive). The GI50 [49] was 30.5 µM (inactive), the GI50 [50] was 27.2 µM (inactive) and the GI50 [59] was 32.4 µM (inactive).
